Assay results as given in patent US9598441B2, “Therapeutic compounds and methods” (Wayne State University, priority 2011, dated 2017).

Assays:
[1] = test system: HBC cells transfected with scrambled, CARP-1 or Cdh1 SiRNAs; test: MTT assay in SiRNA-transfected cells; format: cell-based, human
Protocol: (§1) Logarithmically growing cells were either untreated or treated with different agents for various time periods. The cells were lysed to prepare protein extracts. IP was carried out by incubating approximately 1 mg of the protein lysate with appropriate antibodies, and the immunoprecipitates or cell lysates were then electrophoresed on 9-12% SDS-polyacrylamide gels, and transferred to nitrocellulose membranes. The membranes were subsequently probed with various antibodies to determine expression/presence of the corresponding proteins. The cell growth inhibition was assessed by using MTT assay. Briefly, MTT (3-[4,5-Dimethylthiazol-2-yl]-2,5diphenyltetrazolium bromide) was dissolved in sterile 1×PBS to prepare a stock solution of 5 mg/ml. The solution was subsequently filtered through 0.2 μm filter and stored at 2-8° C. 4−5×10^2 cells were seeded in 96-well plates. After 72 h incubation with or without different agents, MTT stock solution was added to each culture being assayed to equal one tenth the original culture volume, followed by incubation of cells at 37° C. for another 2 h. At the end of the incubation, the media was removed and cells were treated with 100-200 μl of DMSO to solubilize the dye. The assessment of the live cells was derived by measuring the absorbance of the converted dye at wavelength of 570 nm.
To test this possibility, cells were transfected with 100 nM each of the CARP-1 or the scrambled SiRNAs as detailed in methods. The SiRNA-transfected cells were then either untreated or treated with 20 μM CFM-4 for 24 h followed by determination of levels of CARP-1 and cyclin B1 proteins. […] In a separate experiment, cells were similarly transfected with CARP-1 SiRNA or scrambled SiRNAs followed by treatment with CFM-4 essentially as in FIG. 6A, and cell viabilities were determined by the MTT assay. […] In a separate experiment, cells were similarly transfected with Cdh1 SiRNA or scrambled SiRNAs followed by treatment with CFM-4 essentially as in FIG. 6C, and cell viabilities were determined by the MTT assay.

[2] = biological target: T1, His-TAT-HA-tagged A-epitope peptide [CARP-1 (951-980)] (Homo sapiens, UniProt Q8IX12); test: In vitro binding of SMIs, immobilized A-epitope peptide pre-incubated with CFM; conditions: 100 μM, 30 min at RT; WB with anti-Gst
T1 construct: wild-type or scrambled His-TAT-HA-CARP-1 (951-980) peptides; made in house; host or cells: E. coli BL-21 (DE3)
T1 sequence (Q8IX12 951-980 limits assumed): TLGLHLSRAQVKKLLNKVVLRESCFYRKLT
Protocol: The CFM-4 and 5 were separately dissolved in DMSO to obtain a stock of 20-50 mM. For in vitro binding experiments we utilized affinity-purified Gst-APC-2 (685-754) and His-TAT-HA-tagged A-epitope (WT) peptide. Ten nanogram of the His-TAT-HA-tagged A-epitope (WT) peptide was first allowed to bind with Ni-NTA beads (ProBond, InVitrogen), and then the reaction was incubated with DMSO (control), 100 μM CFM-4, or 100 μM CFM-5 for 30 min at RT. The reactions were then subjected to three washes with the binding buffer, followed by incubation with 10 ng of affinity-purified Gst-APC-2 (685-754) peptide for 30 min at RT. The reactions were washed again for three times with PBS, eluted and analyzed on a SDS-PAGE followed by western blotting (WB) with anti-Gst antibodies. A similar strategy was performed by immobilizing the Gst-APC-2 (685-754) peptide with Gst-beads. The beads were washed, incubated with DMSO or the CFMs, and the reactions washed again. The reactions were then allowed to incubate with affinity purified A-epitope peptide, and the complexes analyzed by SDS-PAGE followed by WB with anti HA-tag antibodies.

[3] = test system: CARP-1, cyclin B1, Cdc20, Cdh1, APC-2, CDKIs, caspases, p38, Bcl2 family proteins; test: Western blot of protein levels in treated cells; format: cell-based
Protocol: as §1

[4] = test system: caspase-3, caspase-8, caspase-9, caspase-2; test: ApoAlert Caspase profiling plate, fluorescence-based; format: cell-based
Protocol: For apoptosis ELISA assay, 4−5×10^2 cells were seeded in 96-well plates and treated essentially as indicated in the MTT assay above. Untreated as well as treated cells were lysed, and levels of mono and oligo-nucleosomal DNA fragments in the lysates were determined by measuring optical density of each sample at 405 nm and 495 nm wavelengths. […] For TUNEL labeling, the cells were treated with various agents, fixed, labeled and photographed essentially as detailed in immuno-localization protocols described before (Zhang, L., Levi, E., Majumder, P., Yu, Y., Aboukameel, A., Du, J., Xu, H., Mohammad, R. M., Hatfield, J. S., Wali, A., Adsay, V., Majumdar, A. P. N., and Rishi, A. K. (2007) Mol. Cancer. Ther. 6(5), 1661-1672). […] Cell lysates derived from vehicle DMSO (Control) or CFM-4-treated cells were added to the wells that had immobilized fluorogenic caspase-3, caspase-8, caspase-9, or caspase-2 substrates. The fluorescence released from the activated caspase-dependent cleavage of respective substrate was detected by a plate reader at the excitation and emission wavelengths of 380 nm and 460 nm, respectively.

Compound: O=C1N(Cc2ccccc2Cl)c2ccccc2C12NN=C(c1ccccc1)S2 (stereo not drawn) [CFM-4, 1-(2-chlorobenzyl)-5′-phenyl-3′H-spiro[indoline-3,2′-[1,3,4]thiadiazol]-2-one]
- growth of cells transfected with scrambled SiRNAs (MTT) ([1]; 20 μM CFM-4, 24 h): suppressed growth
- growth inhibition in CARP-1 SiRNA-transfected cells (MTT) ([1]; CARP-1 knockdown, 20 μM CFM-4, 24 h): blocked CFM-4-dependent inhibition of cell growth
- growth inhibition in Cdh1 SiRNA-transfected cells (MTT) ([1]; Cdh1 knockdown): blocked CFM-4-dependent inhibition of HBC cell growth
- binding of immobilized A-epitope peptide with Gst-APC-2 (685-754) after pre-incubation with compound [2]: abrogated its binding
- APC-2 levels (WB) [3]: unaffected
- Bax expression (WB) [3]: failed to stimulate Bax expression
- Cdc20 levels (WB) [3]: significantly reduced
- Cdh1 levels (WB) [3]: modest decline
- cleavage of caspases (WB) [3]: cleavage of caspases 9 and 8
- tBid levels (WB) [3]: modest increase in tBid levels
- CARP-1 levels (WB) ([3]; 50 nM velcade 6 h or 24 h, 20 μM CFM-4 24 h): robust increase in CARP-1 levels
- p38 activation (WB) ([3]; 20 μM, from 6 h, sustained through 24 h): activation (phosphorylation) of p38
- levels of p21WAF1/CIP1 and p27KIP1 CDKIs (WB) ([3]; 0.5-1.0 h exposure): elevated
- levels of p21WAF1/CIP1 and p27KIP1 CDKIs (WB) ([3]; 3 h and beyond): decline
- cyclin B1 levels (WB) ([3]; 6 h and subsequent treatment periods): depleted cyclin B1
- levels of BimEL (WB) ([3]; 12 h or 24 h treatments): declined significantly
- levels of Bims isoform (WB) ([3]; 12 h or 24 h treatments): concomitant increase
- levels of E2 ubiquitin ligase UbCH10 (WB) ([3]; alone or in combination with caspase inhibitors): not affected
- cleavage of PARP1 (WB) ([3]; cells transfected with scrambled SiRNAs): robust cleavage of PARP1
- levels of Bcl2, BclXL, Noxa, and Puma proteins (WB) ([3]; different cells): failed to modulate levels
- CARP-1 and cyclin B1 levels (WB) ([3]; drug (ADR or TAM)-resistant MCF-7 cells): elevated CARP-1 and reduced cyclin B1 levels
- cyclin B1 levels (WB) ([3]; prostate and pancreatic cancer cells): induced cyclin B1 loss
- CARP-1 levels (WB) ([3]; time course, 6 h and subsequent treatment periods): stimulated CARP-1 levels
- activation of caspases (fluorescence-based quantitative assay) [4]: activation of caspases 3, 8, 9, and 2
